Laboratory results: US20240174674A1, “NITROGEN-CONTAINING POLYCYCLIC FUSED RING COMPOUND, PHARMACEUTICAL COMPOSITION THEREOF, PREPARATION METHOD THEREFOR, AND USE THEREOF” (APPLIED PHARMACEUTICAL SCIENCE, INC., priority 2021, published 2024)
Where two headings read alike, the source gives them in different places.

Biological target: RET G810R (Homo sapiens (Human), UniProt P07949, G810R)
Experiment: HTRF KinEASE-TK kinase activity test, RET G810R
Settings: for inhibitory activity against RET G810R relative to that of selpercatinib (LOXO-292): fold versus selpercatinib (LOXO-292)
[1] = read-out: RET G810R IC50, HTRF kinase assay

RET G810R, sequence (P07949 29-1114 G810R): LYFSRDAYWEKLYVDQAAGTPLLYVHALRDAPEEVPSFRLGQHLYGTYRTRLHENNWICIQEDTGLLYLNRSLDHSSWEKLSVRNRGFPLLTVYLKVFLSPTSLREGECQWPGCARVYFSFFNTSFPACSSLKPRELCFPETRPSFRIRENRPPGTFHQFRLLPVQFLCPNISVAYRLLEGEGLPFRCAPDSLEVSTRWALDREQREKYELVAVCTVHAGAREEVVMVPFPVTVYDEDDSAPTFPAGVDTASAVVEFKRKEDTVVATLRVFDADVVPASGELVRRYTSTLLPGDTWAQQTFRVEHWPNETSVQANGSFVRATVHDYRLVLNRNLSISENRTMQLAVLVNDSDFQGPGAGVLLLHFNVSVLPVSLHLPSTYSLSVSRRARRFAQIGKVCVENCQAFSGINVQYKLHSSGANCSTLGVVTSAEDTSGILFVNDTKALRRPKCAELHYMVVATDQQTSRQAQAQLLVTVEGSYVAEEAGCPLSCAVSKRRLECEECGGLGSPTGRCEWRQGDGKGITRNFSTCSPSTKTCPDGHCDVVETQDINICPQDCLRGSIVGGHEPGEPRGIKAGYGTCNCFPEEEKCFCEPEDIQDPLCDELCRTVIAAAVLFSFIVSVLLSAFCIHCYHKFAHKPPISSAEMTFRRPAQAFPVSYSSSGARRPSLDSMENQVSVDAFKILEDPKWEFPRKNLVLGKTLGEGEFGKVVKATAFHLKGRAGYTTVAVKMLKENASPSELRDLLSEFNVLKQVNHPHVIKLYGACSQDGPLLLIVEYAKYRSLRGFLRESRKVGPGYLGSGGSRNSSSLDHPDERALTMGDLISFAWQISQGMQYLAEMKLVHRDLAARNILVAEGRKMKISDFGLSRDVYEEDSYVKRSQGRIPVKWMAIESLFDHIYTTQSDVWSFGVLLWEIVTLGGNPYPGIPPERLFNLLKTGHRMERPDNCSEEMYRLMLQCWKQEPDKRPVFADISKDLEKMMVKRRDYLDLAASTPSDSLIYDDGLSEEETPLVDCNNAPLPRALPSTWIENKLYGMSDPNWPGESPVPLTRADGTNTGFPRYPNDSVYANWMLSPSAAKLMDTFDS

Compound	IC50 [1]	inhibitory activity against RET G810R relative to that of selpercatinib (LOXO-292)	IC50
COC(=O)COc1cc(-c2ccc(N3CC4CC(C3)N4Cc3ccc(OC)nc3)nc2)c2c3cn[nH]c3nn2c1 [Compound 228, Methyl 2-((4-(6-(6-((6-methoxypyridin-3-yl)methylene)-3,6-diazabicyclo[3.1.1]heptan-3-yl)pyridin-3-yl)-1H-pyrazolo[3′,4′:3,4]pyrazolo[1,5-α]pyridin-6-yl)oxy)acetate]	5.7 nM	–	–
CCOc1cc(-c2ccc(N3CC4(CCCN(C(=O)c5c(F)cccc5Cl)C4)C3)nc2)c2c3cn[nH]c3nn2c1 [Compound 193, N-(2-(5-(6-ethoxy-1H-pyrazolo[3′,4′:3,4]pyrazolo[1,5-α]pyridin-4-yl)pyridin-2-yl)-2,6-diazaspiro [3.5]nonan-6-yl)-2-chloro-6-fluorobenzamide]	33.7 nM	–	–
CCOc1cc(-c2ccc(N3CCC(S(=O)(=O)NC(C)C)CC3)nc2)c2c3cn[nH]c3nn2c1 [Compound 101, 1-(5-(6-ethoxy-1H-pyrazolo[3′,4′:3,4]pyrazolo[1,5-α]pyridin-4-yl)pyridin-2-yl)-N-isopropylpiperidine-4-sulfonamide]	6.6 nM	–	–
O=C(N[C@H]1CCN(c2ccc(-c3cc(OCCF)cn4nc5[nH]ncc5c34)cn2)C[C@H]1O)c1c(F)cccc1F [Compound 267, N-((3R,4S)-1-(5-(6-(2-fluoroethoxy)-1H-pyrazolo[3′,4′:3,4]pyrazolo[1,5-α]pyridin-4-yl)pyridin-2-yl)-3-hydroxypiperidin-4-yl)-2,6-difluorobenzamide]	3 nM	≥ 10 times	–
CCOc1cc(-c2ccc(N3CCC(CN4CCCC4)(C(=O)NCC(C)C)CC3)nc2)c2c3cn[nH]c3nn2c1 [Compound 37, 4-(pyrrolidin-1-ylmethyl)-1-(5-(6-ethoxy-1H-pyrazolo[3′,4′:3,4]pyrazolo[1,5-α]pyridin-4-yl)pyridin-2-yl)-N-isobutylpiperidine-4-carboxamide]	6.3 nM	–	–
CCOc1cc(-c2cnc(N3CCC(C)(NC(=O)c4c(F)ccc(F)c4F)CC3)cn2)c2c3cn[nH]c3nn2c1 [Compound 57, N-(1-(5-(6-ethoxy-1H-pyrazolo[3′,4′:3,4]pyrazolo[1,5-α]pyridin-4-yl)pyrazin-2-yl)-4-methylpiperidin-4-yl)-2,3,6-trifluorobenzamide]	6.9 nM	–	–
CCOc1cc(-c2ccc(N3C4CCC3CN(C(=O)c3c(F)cccc3Cl)C4)nc2)c2c3cn[nH]c3nn2c1 [Compound 157, (2-chloro-6-fluoro)((1R,5S)-8-(5-(6-ethoxy-1H-pyrazolo[3′,4′:3,4]pyrazolo[1,5-α]pyridin-4-yl)pyridin-2-yl)-3,8-diazabicyclo[3.2.1]octan-3-yl)benzamide]	8.6 nM	–	–
CCOc1cc(-c2ccc(N3CC4CCC(C3)N4C(=O)c3c(F)cccc3Cl)nc2)c2c3cn[nH]c3nn2c1 [Compound 155, (2-chloro-6-fluoro)((1R,5S)-3-(5-(6-ethoxy-1H-pyrazolo[3′,4′:3,4]pyrazolo[1,5-α]pyridin-4-yl)pyridin-2-yl)-3,8-diazabicyclo[3.2.1]octan-8-yl)benzamide]	14.2 nM	–	–
C=CC(=O)Oc1cc(-c2ccc(N3CC4CC(C3)N4Cc3ccc(OC)nc3)nc2)c2c3cn[nH]c3nn2c1 [Compound 242, 4-(6-(6-((6-methoxypyridin-3-yl)methyl)-3,6-diazabicyclo[3.1.1]heptan-3-yl)pyridin-3-yl)-1H-py razolo[3′,4′:3,4]pyrazolo[1,5-α]pyridin-6-yl acrylate]	4.7 nM	–	–
CCOc1cc(-c2ccc(N3CCC4(CCN(C(=O)c5c(F)cccc5Cl)C4)CC3)nc2)c2c3cn[nH]c3nn2c1 [Compound 208, N-(8-(5-(6-ethoxy-1H-pyrazolo[3′,4′:3,4]pyrazolo[1,5-α]pyridin-4-yl)pyridin-2-yl)-2,8-diazaspiro [4.5]decan-2-yl)-2-chloro-6-fluorobenzamide]	24.1 nM	–	–
CCOc1cc(-c2ccc(N3CC4CCC(C3)N4Cc3ccc(OC)nc3)nc2)c2c3cn[nH]c3nn2c1 [Compound 156, 6-ethoxy-4-(6-((1R,5S)-8-((6-methoxypyridin-3-yl)methyl)-3,8-diazabicyclo[3.2.1]octan-3-yl)pyridin-3-yl)-1H-pyrazolo[3′,4′:3,4]pyrazolo[1,5-α]pyrazole]	11.4 nM	–	–
CCOc1cc(-c2ccc(N3CC4COCC(C3)N4C(=O)c3c(F)cccc3Cl)nc2)c2c3cn[nH]c3nn2c1 [Compound 169, N-(7-(5-(6-ethoxy-1H-pyrazolo[3′,4′:3,4]pyrazolo[1,5-α]pyridin-4-yl)pyridin-2-yl)-3-oxa-7,9-azabicyclo[3.3.1]nonan-9-yl)-2-chloro-6-fluorobenzamide]	4.8 nM	–	–
CCOc1cc(-c2ccc(N3CC[C@H](NC(=O)C4(C(F)(F)F)CCC4)[C@H](O)C3)nc2)c2c3cn[nH]c3nn2c1 [Compound 281, N-((3R,4S)-1-(5-(6-ethoxy-1H-pyrazolo[3′,4′:3,4]pyrazolo[1,5-α]pyridin-4-yl)pyridin-2-yl)-3-hydroxypiperidin-4-yl)-1-(trifluoromethyl)cyclobutane-1-carboxamide]	1.5 nM	≥ 10 times	–
CCOc1cc(-c2cnc(N3CC[C@H](NC(=O)c4ncccc4Cl)[C@@H](O)C3)cn2)c2c3cn[nH]c3nn2c1 [Compound 50]	17.9 nM	–	–
COc1cc(-c2ccc(N3CC4CC(C3)N4Cc3ccc(OC)nc3)nc2)c2c3cn[nH]c3nn2c1 [Compound 235]	2.2 nM	≥ 10 times	–
CCOc1cc(-c2ccc(N3CC[C@H](NC(=O)c4ccccc4C(F)(F)F)[C@H](O)C3)nc2)c2c3cn[nH]c3nn2c1 [Compound 279, N-((3R,4S)-1-(5-(6-ethoxy-1H-pyrazolo[3′,4′:3,4]pyrazolo[1,5-α]pyridin-4-yl)pyridin-2-yl)-3-hydroxypiperidin-4-yl)-2-(trifluoromethyl)benzamide]	2.2 nM	≥ 10 times	–
C=CC(=O)N1C2CC1CN(c1ccc(-c3cc(OCC)cn4nc5[nH]ncc5c34)cn1)C2 [Compound 250, 1-(3-(5-(6-ethoxy-1H-pyrazolo[3′,4′:3,4]pyrazolo[1,5-α]pyridin-4-yl)pyridin-2-yl)-3,6-diazabicyclo[3.1.1]heptan-6-yl)prop-2-en-1-one]	40.8 nM	–	–

Next, values leading:

IC50 [1]	inhibitory activity against RET G810R relative to that of selpercatinib (LOXO-292)	IC50	Compound
–	–	14.5 nM	CCOc1cc(-c2ccc(N3CC[C@H](NCc4c(F)cccc4Cl)[C@@H](O)C3)nc2)c2c3cn[nH]c3nn2c1 [Compound 107, (3S,4S)-4-((2-chloro-6-fluorobenzyl)amino)-1-(5-(6-ethoxy-1H-pyrazolo[3′,4′:3,4]pyrazolo[1,5-α ]pyridin-4-yl)pyridin-2-yl)piperidin-3-ol]
2.9 nM	≥ 10 times	–	CCOc1cc(-c2ccc(N3CC[C@H](NC(=O)c4c(C)cccc4Cl)[C@@H](N)C3)nc2)c2c3cn[nH]c3nn2c1 [Compound 48, N-((3S,4S)-3-amino-1-(5-(6-ethoxy-1H-pyrazolo[3′,4′:3,4]pyrazolo[1,5-α]pyridin-4-yl)pyridin-2-yl)piperidin-4-yl)-2-chloro-6-methylbenzamide]
0.96 nM	≥ 10 times	–	CCOc1cc(-c2ccc(N3CC[C@H](NC(=O)c4c(F)cccc4F)[C@H](O)C3)nc2)c2c3cn[nH]c3nn2c1 [Compound 233]
4.1 nM	–	–	CCOc1cc(-c2ccc(N3C[C@H]4CN(Cc5ccc(OC)nc5)C[C@H]4C3)nc2)c2c3cn[nH]c3nn2c1 [Compound 152, 6-ethoxy-4-(6-((3aR,6aS)-5-((6-methoxypyridin-3-yl)methylene)-hexahydropyrrolo[3,4-c]pyrrol-2(1H)-yl)pyridin-3-yl)-1H-pyrazolo[3′,4′:3,4]pyrazolo[1,5-α]pyridine]
20.8 nM	–	–	CCOc1cc(-c2ccc(N3CCN(Cc4ccc(OC)nc4)C(CN(C)C)C3)nc2)c2c3cn[nH]c3nn2c1 (stereo not drawn) [Compound 245, 1-(4-(5-(6-ethoxy-1H-pyrazolo[3′,4′:3,4]pyrazolo[1,5-α]pyridin-4-yl)pyridin-2-yl)-1-((6-methoxypyridin-3-yl)methylene)piperazin-2-yl)-N,N-dimethylmethanamine]
38.3 nM	–	–	CCOc1cc(-c2ccc(N3CCN(Cc4ccc(OC)nc4)C4(CC4)C3)nc2)c2c3cn[nH]c3nn2c1 [Compound 165, 6-ethoxy-4-(6-(4-((6-methoxypyridin-3-yl)methylene)-4,7-diazaspiro[2.5]octan-7-yl)pyridin-3-yl) -1H-pyrazolo[3′,4′:3,4]pyrazolo[1,5-α]pyridine]
0.9 nM	≥ 10 times	–	CCOc1cc(-c2ccc(N3CC[C@H](NC(=O)c4c(C)cccc4Cl)[C@H](O)C3)nc2)c2c3cn[nH]c3nn2c1 [Compound 278, 2-chloro-N-((3R,4S)-1-(5-(6-ethoxy-1H-pyrazolo[3′,4′:3,4]pyrazolo[1,5-α]pyridin-4-yl)pyridin-2-yl)-3-hydroxypiperidin-4-yl)-6-methylbenzamide]
49 nM	–	–	CCOc1cc(-c2ccc(N3CCC4(CCCN4Cc4ccc(OC)nc4)CC3)nc2)c2c3cn[nH]c3nn2c1 [Compound 207, 6-ethoxy-4-(6-(1-((6-methoxypyridin-3-yl)methylene)-1,8-diazaspiro[4.5]octan-8-yl)pyridin-3-yl) -1H-pyrazolo[3′,4′:3,4]pyrazolo[1,5-α]pyridine]
–	–	4 nM	COc1ccc(CN2C3CC2CN(c2ccc(-c4cc(OCC(=O)O)cn5nc6[nH]ncc6c45)cn2)C3)cn1 [Compound 240, 2-((4-(6-(6-((6-methoxypyridin-3-yl)methyl)-3,6-diazabicyclo[3.1.1]heptan-3-yl)pyridin-3-yl)-1 H-pyrazolo[3′,4′:3,4]pyrazolo[1,5-α]pyridin-6-yl)oxy)acetic acid]
11.1 nM	–	–	CCOc1cc(-c2ccc(N3CCC(Oc4ccccn4)CC3)nc2)c2c3cn[nH]c3nn2c1 [Compound 103, 6-ethoxy-4-(6-(4-(pyridin-2-yloxy)piperidin-1-yl)pyridin-3-yl)-1H-pyrazolo[3′,4′:3,4]pyrazolo[1,5-α]pyridine]
